The results in this text go back to BindingDB's records for patent US12378224 (Dong-A Socio Holdings Co., 2025).

SMILES strings stand for the structures. A value given as a limit tells only on which side of the number the result lay.

For one assay, the target named is T1, Tyrosine-protein kinase Mer/Tyrosine-protein kinase UFO (Human, UniProt P30530+Q12866).
T1 sequence (P30530 whole entry): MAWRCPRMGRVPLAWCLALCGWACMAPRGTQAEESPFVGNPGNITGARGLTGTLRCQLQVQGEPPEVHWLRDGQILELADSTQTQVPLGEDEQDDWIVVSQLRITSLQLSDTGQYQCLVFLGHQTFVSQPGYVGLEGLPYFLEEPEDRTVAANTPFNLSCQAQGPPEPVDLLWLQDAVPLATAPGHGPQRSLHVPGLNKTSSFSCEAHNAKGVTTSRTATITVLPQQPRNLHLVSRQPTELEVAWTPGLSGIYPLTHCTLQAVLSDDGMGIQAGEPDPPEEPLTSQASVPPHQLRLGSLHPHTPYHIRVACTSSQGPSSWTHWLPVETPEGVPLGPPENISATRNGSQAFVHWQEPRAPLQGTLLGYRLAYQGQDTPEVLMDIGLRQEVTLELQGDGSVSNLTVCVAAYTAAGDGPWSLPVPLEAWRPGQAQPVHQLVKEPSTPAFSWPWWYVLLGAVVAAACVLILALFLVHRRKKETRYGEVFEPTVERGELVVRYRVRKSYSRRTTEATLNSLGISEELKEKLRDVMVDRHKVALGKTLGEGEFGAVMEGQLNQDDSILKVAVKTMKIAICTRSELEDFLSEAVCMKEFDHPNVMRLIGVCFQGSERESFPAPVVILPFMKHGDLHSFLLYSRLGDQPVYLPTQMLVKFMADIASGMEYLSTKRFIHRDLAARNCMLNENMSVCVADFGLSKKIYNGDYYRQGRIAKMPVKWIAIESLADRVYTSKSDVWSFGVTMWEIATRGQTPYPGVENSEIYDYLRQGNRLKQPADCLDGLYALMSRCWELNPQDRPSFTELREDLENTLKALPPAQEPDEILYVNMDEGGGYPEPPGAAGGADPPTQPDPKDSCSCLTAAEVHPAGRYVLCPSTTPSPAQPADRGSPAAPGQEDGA
T1 sequence (Q12866 whole entry): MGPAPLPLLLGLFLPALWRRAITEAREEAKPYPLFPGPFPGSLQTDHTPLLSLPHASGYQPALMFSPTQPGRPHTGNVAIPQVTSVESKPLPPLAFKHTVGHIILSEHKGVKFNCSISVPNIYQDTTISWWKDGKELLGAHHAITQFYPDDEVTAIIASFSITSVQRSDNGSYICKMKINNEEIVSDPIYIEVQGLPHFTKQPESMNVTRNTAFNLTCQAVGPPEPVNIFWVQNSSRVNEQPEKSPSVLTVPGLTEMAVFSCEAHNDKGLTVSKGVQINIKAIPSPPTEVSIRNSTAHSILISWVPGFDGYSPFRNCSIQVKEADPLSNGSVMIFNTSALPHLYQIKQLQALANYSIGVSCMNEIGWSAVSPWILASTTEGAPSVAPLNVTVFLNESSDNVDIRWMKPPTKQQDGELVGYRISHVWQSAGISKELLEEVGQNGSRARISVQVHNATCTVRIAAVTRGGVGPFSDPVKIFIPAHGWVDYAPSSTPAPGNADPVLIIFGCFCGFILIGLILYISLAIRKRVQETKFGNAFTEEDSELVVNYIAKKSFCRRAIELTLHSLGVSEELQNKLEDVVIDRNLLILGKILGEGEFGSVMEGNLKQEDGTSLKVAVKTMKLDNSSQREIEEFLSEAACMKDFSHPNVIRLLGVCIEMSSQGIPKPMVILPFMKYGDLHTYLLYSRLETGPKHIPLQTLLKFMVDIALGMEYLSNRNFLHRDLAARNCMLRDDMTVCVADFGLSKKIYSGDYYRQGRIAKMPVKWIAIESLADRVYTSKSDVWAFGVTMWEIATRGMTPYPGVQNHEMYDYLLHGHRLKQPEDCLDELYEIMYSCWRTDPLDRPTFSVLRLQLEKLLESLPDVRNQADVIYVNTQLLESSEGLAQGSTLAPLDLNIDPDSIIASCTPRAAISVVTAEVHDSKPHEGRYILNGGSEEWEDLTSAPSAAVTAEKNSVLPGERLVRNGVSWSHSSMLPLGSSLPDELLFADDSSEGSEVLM
As to the kind of experiment: TR-FRET Kinase Activity Biochemical Assay. The source says:
Table 2: For the SAR (structure-activity relationship) and compound screening, LanthaScreen™ TR-FRET (Time-Resolved fluorescence energy transfer) assay was employed using the phospho-tyrosine specific Terbium (Tb)-labelded antibody with a fluorescein labeled poly-GT (glutamate-tyrosine) as a substrate. Upon excitation at 340 nm by UV, the energy from Tb donor of the antibody is transferred to the fluorescein of the phosphorylated poly GT substrate, and fluorescein emits light at 520 nm. The ratio between the intensity of primary emission at 495 nm and that of secondary emission at 520 nm was used to quantify the level of kinase activity. The recombinant proteins of human c-MER and AXL catalytic domains, Fluorescein-labeled poly-GT substrate, Tb-labeled anti-phosphorylated tyrosine antibodies, the kinase assay buffer, and 0.5M EDTA solution were purchased (Life technologies, USA). The TR-FRET assays were carried out in the white low volume 384-well plate (Corning, USA). […] 10 mM EDTA was added to terminate the enzyme reaction, and the level of phosphorylation of poly-GT substrate was determined following 30 min incubation with 2 nM Tb-labeled antibody. The fluorescence intensity was measured with Envision™ plate reader (PerkinElmer, USA).
A general note: TR-FRET usually uses a lanthanide donor and a delayed reading to cut background.
The IC50 is the concentration at which inhibition is half-maximal. Higher therefore signals weaker potency in that assay. On to `CN1CCN(Cc2ccc(-c3cnc(N)c(C(=O)N[C@@H]4CCN(C(=O)c5ccc(-c6ccccc6Cl)cc5)C4)c3)cc2)CC1` [US12378224, Example 572], for which the IC50 was below 0.01 µM. `Cn1cc(-c2cnc(N)c(C(=O)N[C@@H]3CCN(C(=O)c4ccc(-c5cccc(Cl)c5Cl)cc4)C3)c2)cn1` [US12378224, Example 369] had an IC50 below 0.01 µM.

With `CN1CCC(CNC(=O)c2ccc(-c3cnc(N)c(C(=O)N[C@@H]4CCN(C(=O)c5ccc(-c6ccccc6Cl)cc5)C4)c3)cc2)C1` (some centres undefined) [US12378224, Example 594], the IC50 is below 0.01 µM.

A further assay deals with T2, Tyrosine-protein kinase Mer/Tyrosine-protein kinase receptor UFO/Tyrosine-protein kinase receptor TYRO3 (Human, UniProt P30530+Q06418+Q12866).
T2 sequence (Q06418 whole entry): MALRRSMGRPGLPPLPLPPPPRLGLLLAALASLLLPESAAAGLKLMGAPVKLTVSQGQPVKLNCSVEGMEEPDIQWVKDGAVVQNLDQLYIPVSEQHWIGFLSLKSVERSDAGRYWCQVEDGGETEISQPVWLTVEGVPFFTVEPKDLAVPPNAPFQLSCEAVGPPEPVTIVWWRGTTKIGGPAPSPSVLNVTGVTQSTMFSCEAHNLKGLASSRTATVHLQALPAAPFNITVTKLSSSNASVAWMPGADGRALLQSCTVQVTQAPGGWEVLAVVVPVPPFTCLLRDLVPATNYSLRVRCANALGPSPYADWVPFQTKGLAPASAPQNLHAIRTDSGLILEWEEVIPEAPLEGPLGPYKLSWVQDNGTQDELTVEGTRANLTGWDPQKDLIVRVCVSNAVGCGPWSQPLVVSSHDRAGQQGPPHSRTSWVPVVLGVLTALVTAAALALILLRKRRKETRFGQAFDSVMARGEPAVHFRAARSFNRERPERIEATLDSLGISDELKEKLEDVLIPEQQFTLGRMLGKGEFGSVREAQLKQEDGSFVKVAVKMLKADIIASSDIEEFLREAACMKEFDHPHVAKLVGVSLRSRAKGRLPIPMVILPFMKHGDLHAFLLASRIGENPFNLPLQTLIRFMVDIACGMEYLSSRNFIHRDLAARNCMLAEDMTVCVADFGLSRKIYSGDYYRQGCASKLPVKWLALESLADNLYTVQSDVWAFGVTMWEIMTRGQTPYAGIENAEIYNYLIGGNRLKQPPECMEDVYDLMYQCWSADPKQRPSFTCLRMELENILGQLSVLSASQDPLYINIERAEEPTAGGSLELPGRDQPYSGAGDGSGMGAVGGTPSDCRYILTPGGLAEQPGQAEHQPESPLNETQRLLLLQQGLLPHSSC
T2 sequence (P30530 whole entry): T1 sequence (P30530 whole entry)
T2 sequence (Q12866 whole entry): T1 sequence (Q12866 whole entry)
Briefly: HTRF Kinase Activity Biochemical Assay. The method, then:
Table 3: For the SAR (structure-activity relationship) and compound screening, HTRF (Homogeneous Time Resolved Fluorescence) kinase activity assay was employed for all MER, AXL and TYRO3 kinases using Cisbio HTRF KinEASE™-TK kit (Cisbio, USA). The kit includes biotin-labeled TK substrate, streptavidin-XL665, Eu3+-cryptate-labeled TK antibody and HTRF Detection buffer. There are two main steps in the kinase assay: kinase reaction and detection of phosphorylated substrate. The reaction was carried out in white low volume 384-well plate (Corning, USA) with 25 nL compound in dimethyl sulfoxide in each well. […] Then the reaction was stopped after 1 hour incubation at room temperature by adding 5 uL of HTRF Detection buffer which also contains 0.375 nM Eu3+-cryptate-labeled TK antibody and 0.062 uM streptavidin-XL665(SA-XL665) to allow for detection of the phosphorylated peptide product. After 1 h incubation at room temperature, the fluorescence intensity was measured with Envision™ plate reader (PerkinElmer, USA). Upon excitation at 340 nm by UV, the energy from Eu3+ donor of the antibody is transferred to the FRET acceptor XL665, and […] emits light at 665 nm. The level of kinase activity was quantified by the HTRF ratio that calculated from the intensity of emission at 665 nm and emission at 620 nm (fluorescence intensity @ 665 nm/fluorescence intensity @ 620 nm×10,000). The recombinant protein of human MER (528-end) was purchased from Carnabio, Japan. The recombinant human AXL (473-end) and TYRO3 (455-end) were purchased from SignalChem, Canada.
`Cn1cc(-c2cnc(N)c(C(=O)N[C@@H]3CCN(C(=O)Nc4ccc(C#N)cc4)C3)c2)cn1` [US12378224, Example 7] showed an IC50 above 1 µM. With `Nc1ncc(-c2ccnc(N3CCNCC3)c2)cc1C(=O)N[C@@H]1CCN(C(=O)c2ccc(-c3ccc(F)cc3Cl)cc2)C1` [US12378224, Example 581], the IC50 was below 0.01 µM. `CN1CCN(c2ccc(-c3cnc(N)c(C(=O)N[C@@H]4CCN(C(=O)c5ccc(-c6ccc(F)cc6Cl)cc5)C4)c3)cc2)CC1` [US12378224, Example 585] yielded an IC50 below 0.01 µM. Consider `CC1CCC(NC(=O)c2ccc(-c3cnc(N)c(C(=O)N[C@@H]4CCN(C(=O)c5ccc(-c6ccccc6Cl)cc5)C4)c3)cc2)CC1` (some centres undefined) [US12378224, Example 592], for which the IC50 is above 1 µM.

As to `CN1CCC(NC(=O)c2ccc(-c3cnc(N)c(C(=O)N[C@@H]4CCN(C(=O)c5ccc(-c6ccccc6Cl)cc5)C4)c3)cc2)CC1` [US12378224, Example 591], the IC50 was below 0.01 µM.

`Nc1ncc(-c2ccc(S(=O)(=O)N3CCC3)cc2)cc1C(=O)N[C@@H]1CCN(C(=O)c2ccc(-c3ccccc3Cl)cc2)C1` [US12378224, Example 574] returned an IC50 above 1 µM.
